B1: daclizumab: anti-IL-2 receptor monoclonal antibody (antibody, chains of the INN, looked up, V domains shown)
VH: QVQLVQSGAEVKKPGSSVKVSCKASGYTFTSYRMHWVRQAPGQGLEWIGYINPSTGYTEYNQKFKDKATITADESTNTAYMELSSLRSEDTAVYYCARGGGVFDYWGQGTLVTVSS
VL: DIQMTQSPSTLSASVGDRVTITCSASSSISYMHWYQQKPGKAPKLLIYTTSNLASGVPARFSGSGSGTEFTLTISSLQPDDFATYYCHQRSTYPLTFGQGTKVEVK

Legend:
Format in all cases: cell-based
[1] = test system: human CD4^+ and CD8^+ T cells; assay: Western blot of p62, phospho-RAPTOR and BIM after 16-hr pre-incubation (FIGS. 11-13)
Protocol: For FIGS. 11-13, human CD4^+ and CD8^+ T cells were cultured using a 16-hr pre-incubation interval prior to the addition of 3/28 beads at the reduced ratio of 1:3 beads-to-T cells. As indicated in FIGS. 11-13, the various T cell cultures received different methods of mTOR inhibition (rapamycin at 1.0 μM; temsirolimus at 1.0 or 0.1 different conditions of exogenous IL-2 addition, and different conditions relative to addition of the anti-IL-2 receptor monoclonal antibody, daclizumab. After the 16-hr pre-incubation interval, cells were harvested from the T cell cultures, protein was isolated, and p62 (FIG. 11), phospho-RAPTOR (FIG. 12), or BIM (FIG. 13) and the housekeeper gene β-actin were quantified by western blot.

[2] = test system: T cells; assay: FoxP3 and TBET intra-cellular expression in T cells cultured ex vivo, day 6 (FIGS. 1A-1B)
Protocol: T cells were cultured ex vivo, as indicated, using various ratios of anti-CD3, anti-CD28 beads to T cells (1:1 or 1:12); the mTOR inhibitor temsirolimus (1 μM); without or with the anti-IL-2 receptor monoclonal antibody daclizumab (5 or 50 μg/ml); and either Th1 polarization cytokines (IFN-alpha; 10,000 IU/ml) or control regulatory T cell polarization (IL-2 plus TGF-β). At day 6 of culture, the T cells were evaluated for intra-cellular expression of the regulatory T cell transcription factor FoxP3 and the Th1 transcription factor TBET. (FIGS. 1A-1B).

[3] = test system: CD4^+ and CD8^+ T cells; assay: Cytokine secretion potential of cultured T cells by Luminex, day 6 and day 13 (FIGS. 3A-3B)
Protocol: To evaluate this, we tested cytokine secretion potential of the manufactured T cells at the end of cell culture (day 6) and then again one week after ex vivo expansion after maximal co-stimulation (3/28 bead-to-T cell ratio, 3:1) and propagation in media devoid of any inhibitors. In FIGS. 3A-3B, CD4^+ and CD8^+ T cells were purified and cultured for 6-days either with or without a 16-hr interval of pre-incubation prior to co-stimulation (1:1 ratio of 3/28 beads-to-T cells). As indicated, temsirolimus was added at concentrations of either 1.0 or 0.1 μM; all cultures were supplemented with IFN-α (10,000 IU/ml) and daclizumab (50 μg/ml). On day 6 of culture, the resultant T cells were co-stimulated for 24 hr using a 3:1 ratio of 3/28 beads; the supernatant was tested for cytokine content by Luminex assay (results are described as pg per ml of cytokine secreted per million cells per 24 hr). […] N.A, abbreviation indicates not applicable (insufficient T cell yield to perform assay).

[4] = TREG-permissive culture: bead ratio 1:12, no IFN-α, exogenous IL-2 plus TGF-β
[5] = pre-incubation plus high-dose temsirolimus, compared with other conditions
[6] = temsirolimus 1.0 μM, after 24 hr maximal co-stimulation, with or without overnight pre-incubation

Molecule	phospho-RAPTOR ([1]; high-dose temsirolimus compared to low-dose temsirolimus or high-dose rapamycin)	autophagy marker p62 ([1]; pre-incubation, 1:3 beads, daclizumab, rapamycin 1 μM or temsirolimus 1.0 or 0.1)	FoxP3 expression [2, 4]	expression of TBET ([2]; combination of temsirolimus and anti-IL-2 receptor monoclonal antibody)	FoxP3 expression ([2]; exogenous IL-2 added in combination with IFN-α)	T cell expression of FoxP3 ([2]; temsirolimus 1.0 μM with IFN-α, relative to day 0 input T cells)	day 13 T cell IFN-γ secretion [3, 5]	day 13 T cell TNF-α secretion [3, 5]	day 6 T cell cytokine secretion potential ([3]; temsirolimus 0.1 μM)	day 6 T cell IFN-γ secretion [3, 6]	day 6 T cell TNF-α secretion [3, 6]	TBET expression ([2]; 50 μg/ml daclizumab compared with 5 μg/ml)	FoxP3 expression ([2]; IL-2 receptor blockade added to temsirolimus and IFN-α, 50 μg/ml more effective than 5 μg/ml)
CO[C@H]1C[C@@H]2CC[C@@H](C)[C@@](O)(O2)C(=O)C(=O)N2CCCC[C@H]2C(=O)O[C@H]([C@H](C)C[C@@H]2CC[C@@H](OC(=O)C(C)(CO)CO)[C@H](OC)C2)CC(=O)[C@H](C)/C=C(\C)[C@@H](O)[C@@H](OC)C(=O)[C@H](C)C[C@H](C)/C=C/C=C/C=C/1C [temsirolimus]	lower levels	autophagy could be realized	not effective	increased expression	not effective	reduced	highest	highest	only partially reduced	very low levels	very low levels	–	–
B1	–	–	not effective	–	–	–	–	–	–	–	–	higher degree	further reduced
